From patent EP2664619B1, “Purine derivatives as tools for screening anti-Alzheimer compounds” (Manros Therapeutics, priority 2012, dated 2013)
Each block holds one molecule with its values, some of them ahead of it.

Tests used:
Aβ40 [1] = test: Sandwich ELISA measurement of Aβ40 levels in supernatant of treated N2a-APP695 cells; format: cell-based, Mouse
Description: (§1) Mouse neuroblastoma cells (N2a cells) or N2a-APP695 cells (N2a cell line stably transfected with APP695, an amyloid precursor protein) were cultured in an essential medium composed of Dulbecco's minimal essential medium (DMEM) and of OptiMEM® (1:1, v/v) (Gibco®) containing 0.2 mg/mL Geniticin (Geneticin® Selective Antibiotic, Gibco®) and 5 % fetal bovine serum (FBS, Gibco®, EU approved origin) in a humidified, 5% CO2 incubator at 37°C. Routinely, cells were split without use of Trypsin every 4/5 days. They were first rinsed with PBS (Gibco) and detached from the plate bottom using 4 mL Versene (Gibco) at room temperature for 3-4 min. […]
(§2) The N2a-APP695 cells were seeded at 10.000 cells/well in a 96 well plate with modified media (0.5% FBS) and incubated overnight. Cells were treated with fresh media comprising different compounds according to the invention (equal quantity of DMSO sold by Sigma®). […]
(§3) Then, Aβ38, Aβ40 and Aβ42 levels were measured in a sandwich ELISA (Enzyme-Linked ImmunoSorbent Assay) using a combination of monoclonal antibody 6E10 (mAb 6E10) (sold by Covance® under the reference SIG-39320) and biotinylated polyclonal Aβ38, Aβ40 or Aβ42 antibodies (provided by Dr. P.D. Mehta, IBR, Staten Island, USA). […]
(§4) The optical density was finally measured at 490 nm in a microELISA reader (sold by BioTek Instrument, reference E1 800, Gen 5 software).

Aβ38 [2] = test: Effect of γ-secretase inhibitors/modulator on Aβ38 level in Aftin-treated cells; format: cell-based; settings: for IC50: γ-secretase inhibitor, Aftin-treated cells
Description: (§5) To investigate the importance of γ-secretases in the effects of Aftins according to the invention, two potent pharmacological inhibitors of γ-secretases, DAPT (N-[(3,5-Difluorophenyl)acetyl]-L-alanyl-2-phenyl]glycine-1,1-dimethylethyl ester) and BMS 299897 were used.

Aβ38 [3] = test: Sandwich ELISA measurement of Aβ38 levels in supernatant of treated N2a-APP695 cells; format: cell-based, Mouse
Description: as §1, §2, §3, §4

Aβ42 production = test: Sandwich ELISA measurement of Aβ42 levels in supernatant of treated N2a-APP695 cells; format: cell-based, Mouse
Description: Mouse neuroblastoma cells (N2a cells) or N2a-APP695 cells (N2a cell line stably transfected with APP695, an amyloid precursor protein) were cultured in an essential medium composed of Dulbecco's minimal essential medium (DMEM) and of OptiMEM® (1:1, v/v) (Gibco®) containing 0.2 mg/mL Geniticin (Geneticin® Selective Antibiotic, Gibco®) and 5 % fetal bovine serum (FBS, Gibco®, EU approved origin) in a humidified, 5% CO2 incubator at 37°C. Routinely, cells were split without use of Trypsin every 4/5 days. They were first rinsed with PBS (Gibco) and detached from the plate bottom using 4 mL Versene (Gibco) at room temperature for 3-4 min. 8 mL of fresh medium were added to the cell suspension, and the mix was centrifuged for 3 min at 1,000 rpm. The cell pellet was resuspended in fresh medium before seeding (1/10 dilution) in new flasks.
The N2a-APP695 cells were seeded at 10.000 cells/well in a 96 well plate with modified media (0.5% FBS) and incubated overnight. Cells were treated with fresh media comprising different compounds according to the invention (equal quantity of DMSO sold by Sigma®). They were then incubated for 18h in a humidified, 5% CO2 incubator.
Purines according to the invention were added at various concentrations to N2a-APP695.
The plate was finally centrifuged to remove cell fragments before collecting supernatant samples for amyloids levels determination.
Then, Aβ38, Aβ40 and Aβ42 levels were measured in a sandwich ELISA (Enzyme-Linked ImmunoSorbent Assay) using a combination of monoclonal antibody 6E10 (mAb 6E10) (sold by Covance® under the reference SIG-39320) and biotinylated polyclonal Aβ38, Aβ40 or Aβ42 antibodies (provided by Dr. P.D. Mehta, IBR, Staten Island, USA).
A solution of 100 µl mAb 6E10 diluted in carbonate-bicarbonate buffer, pH 9.6, was coated in the wells of microtiter plates (Maxisorp™ sold by Nunc®) and incubated at 4°C overnight. The plates were then washed with PBST (PBS tablets sold by Gibco®) containing 0.05% Tween-20 (Sigma®), and blocked for 1 h with 1% BSA (Sigma®) in PBST (PBS tablets sold by Gibco®) containing 0.05 Tween-20 (Sigma®) to avoid nonspecific binding.
Following a washing step, samples were added and incubated for 2 hours at room temperature (RT) and then at 4°C overnight. Plates were then washed before incubation with biotinylated polyclonal antibody diluted in PBST (PBS tablets sold by Gibco®) containing 0.05 Tween-20 (Sigma®) + 0.5% BSA at room temperature for 75 minutes.
After a washing step, streptavidin-horseradish peroxidase conjugate (Streptavidin poly-HRP, Thermo Scientific Pierce®), diluted in PBS + 1% BSA, was added and incubation was carried out for 45 min at room temperature. After washing, 100 µl of o-phenylenediamine dihydrochloride (OPD tablets, Invitrogen®) diluted in citrate buffer pH 5.0 were added. The reaction was stopped after 15 min with the addition of 100 µl 1 N sulfuric acid.
A range of known concentrations of Aβ38, Aβ40 and Aβ42, ranging from 0.01 to 10 ng/mL for Aβ38 and Aβ42, and ranging from 0.001 to 10 ng/mL for Aβ40, were use as a reference scale to determine the concentrations of Aβ38, Aβ40 and Aβ42 obtained.
as §4
The EC50 of the molecules tested were thus calculated.

Aβ42 = test: Effect of γ-secretase inhibitors/modulator on Aftin-induced production of Aβ42; format: cell-based; settings: for IC50: γ-secretase inhibitor, Aftin-induced production
Description: as §5

N2a-APP695 cells = test: MTS cell viability assay in the same wells as the ELISA
Description: To measure cell viability, the MTS assay (CellTiter 96® AQueous One Solution Cell Proliferation Assay, Promega) was used in the same wells as the capture ELISA assay. 20µl of MTS reagent (3-(4,5-dimethylthiazol-2-yl)-5-(3-carboxymethoxyphenyl)-2-(4-sulfophenyl)-2H-tetrazolium) was added in each well containing 100µl of media and incubation was then proceeded for 3 hours (37°C, 5% CO2 and 95% humidity). Measurements were made on OD 490Δ630 nm (excitation and emission wavelengths) using a microELISA reader (BioTek Instrument, El 800, Gen 5 software).

Aβ40 [4] = test: Effect of γ-secretase inhibitors on Aβ40 level in Aftin-treated cells; format: cell-based; settings: γ-secretase inhibitor
Description: as §5

γ-secretases = settings: read-out: reported IC50 values on γ-secretases; cited from earlier work
[5] = N2a-APP695 cells, 18 hours, dose-dependent, Figure 3
[6] = N2a-APP695 cells, 1 µM added simultaneously with increasing concentrations of Aftin-5

Aβ42 regulation (Aβ42; [6]): down-regulation
effect on Aftin-5 induced Aβ42 up-regulation and Aβ38 down-regulation (Aβ42; N2a-APP695 cells, added 1 h prior to 100 µM Aftin-5, dose dependent, Figure 4): inhibition of Aftin-5 effect
SMILES: CCN(CC)c1ccc(C)c(Nc2nc(-c3ccc(-n4cnc(C)c4)cc3)cs2)c1 ['Torrey Pines' compound, reference compound]
Aβ40 production (Aβ40 [1]; [5]): down-regulates
Aβ38 regulation (Aβ38 [2]; [6]): up-regulation
Aβ38 level (Aβ38 [3]; [5]): up-regulation
Aβ42 production (Aβ42 production; [5]): down-regulates

EC50 (Aβ42 production; Mus musculus, N2a-APP695 cells, 18h incubation, ELISA assay, read-out: EC50 (µM) at inducing Aβ42 production): 10.6 µM
SMILES: CC[C@H](CO)Nc1nc(N(C)c2ccccc2)c2ncn(C(C)C)c2n1 [Aftin-5, (2R)-2-[[9-isopropyl-6-(N-methylanilino)purin-2-yl]amino]butan-1-ol]
levels of Aβ40, maximum increase (Aβ40 [1]; dose-response curves, Figure 1, 18 hours): ≤ 40%
Toxicity (N2a-APP695 cells; MTS assay, N2a-APP695 cells, class symbol): - ("-" means that the tested compound is non toxic with a concentration higher than 100 µM)
cytotoxic effects on cells (N2a-APP695 cells; highest concentration tested (150 µM) or longest exposure (5 days)): did not show any cytotoxic effects
levels of Aβ38, decrease (Aβ38 [3]; dose-response, in parallel to the increase of Aβ42): > 70%
increase of the levels of Aβ42 production (Aβ42 production; dose-response curves, Figure 1, 18 hours, up to): > 900%

IC50 (Aβ40 [4]): 55.9 nM
IC50 (Aβ38 [2]): 88 nM
IC50 (Aβ42): 28.8 nM
SMILES: C[C@H](c1ccc(F)cc1CCCC(=O)O)N(c1cc(F)ccc1F)S(=O)(=O)c1ccc(Cl)cc1 [BMS 299897]
IC50 (γ-secretases): 8 to 300 nM

IC50 (Aβ40 [4]): 61.8 nM
IC50 (Aβ38 [2]): 112 nM
IC50 (Aβ42): 42.5 nM
SMILES: C[C@H](NC(=O)Cc1cc(F)cc(F)c1)C(=O)N[C@H](C(=O)OC(C)(C)C)c1ccccc1 [DAPT]
IC50 (γ-secretases): 25 to 56 nM
